In patent US20260027068A1, “METHODS OF ADM[…]-KETAMINE” (Perception Neuroscience, Inc., priority 2022, published 2026):

Test system: subjects with TRD
Assay: Adverse events (TEAEs, SAEs) in the TRD study
Assay type: in vivo, human
Conditions: for Number of subjects with TEAE, Mild / Number of subjects with TEAE, Moderate / Number of subjects with TEAE, Severe / Percent of subjects with TEAE, Mild / Percent of subjects with TEAE, Moderate / Percent of subjects with TEAE, Severe: maximum severity
Description: The definitions of an AE and SAE can be found in Section F. AEs were reported by the subject (or, when appropriate, by a caregiver, surrogate, or the subject's legally authorized representative). The Investigator and any designees were responsible for detecting, documenting, and recording events that meet the definition of an AE or SAE and remained responsible for following up AEs that were serious, considered related to the study treatment or study procedures, or that caused the subject to discontinue from the study.
All AEs were collected from the signing of the ICF until the second follow-up visit (Day 15) at the time points specified in the Schedule of Activities (Section C). Medical occurrences that began before the start of study treatment but after obtaining informed consent were recorded on the Medical History/Current Medical Conditions section of the CRF, not the AE section. All SAEs were recorded and reported to the Sponsor or designee within 24 hours as indicated in Section F. The Investigator submitted any updated SAE data to the Sponsor or designee within 24 hours of it being available. Investigators were not obligated to actively seek AE or SAE information after the conclusion of study participation. However, if the Investigator learns of any SAE, including a death, at any time after a subject has been discharged from the study, and he/she considers the event to be reasonably related to the study treatment or study participation, the Investigator must promptly notify the Sponsor or designee. The method of recording, evaluating, and assessing the causality of AEs and SAEs and the procedures for completing and transmitting SAE reports are provided in Section F.
An AE is any untoward medical occurrence in a patient or subject, temporally associated with the use of study treatment, whether or not considered related to the study treatment. An AE can therefore be any unfavorable and unintended sign (including an abnormal laboratory finding), symptom, or disease (new or exacerbated) temporally associated with the use of study treatment.
If an event is not an AE per the definition above, then it cannot be an SAE even if serious conditions are met (e.g., hospitalization for signs/symptoms of the disease under study). A Serious Adverse Event (SAE) is defined as any untoward medical occurrence that, at any dose: a) results in death; b) is life-threatening; c) requires inpatient hospitalization or prolongation of existing hospitalization; d) results in persistent disability/incapacity; or e) is a congenital anomaly/birth defect. The term “life-threatening” in the definition of “serious” refers to an event in which the subject was at risk of death at the time of the event. […] In general, hospitalization signifies that the subject has been detained (usually involving at least an overnight stay) at the hospital or emergency ward for observation and/or treatment that would not have been appropriate in the physician's office or outpatient setting. Complications that occur during hospitalization are AEs. If a complication prolongs hospitalization or fulfills any other serious criteria, the event is serious. When in doubt as to whether “hospitalization” occurred or was necessary, the AE should be considered serious. […] The term disability means a substantial disruption of a person's ability to conduct normal life functions.
(MedDRA; Version 23.0 or higher). Treatment-emergent adverse events (TEAEs) are AEs with onset or worsening after the start of study treatment. The AE summaries will be primarily based on TEAEs. The number and percentage of subjects with TEAEs will be summarized by treatment group, system organ class, and preferred term for all TEAEs, treatment-related TEAEs, SAEs, serious TEAEs, severe TEAEs, TEAEs of special interest, and all TEAEs leading to study drug discontinuation. All TEAEs will be further summarized by maximum severity and causality. The TEAEs of special interest will be identified in the SAP. […]

CN[C@@]1(c2ccccc2Cl)CCCCC1=O.Cl [R(−)-ketamine, (2R)-2-(2-chlorophenyl)-2-(methylamino)cyclohexan-1-one] was tested, and the “Number of subjects with Any adverse events (AE)” value (30 mg (n = 33)) was 11, the “Number of subjects with Serious TEAEs resulting in treatment discontinuation” value (30 mg (n = 33)) was 0 and the “Number of subjects with TEAE with outcome of death” value (30 mg (n = 33)) was 0. The “Number of subjects with TEAEs of COVID-19” value (30 mg (n = 33)) was 0, the “Number of subjects with TEAEs resulting in discontinuation from study” value (30 mg (n = 33)) was 0 and the “Number of subjects with TEAEs resulting in treatment discontinuation” value (30 mg (n = 33)) was 0. The “Number of subjects with Treatment-emergent SAE, Mild” value (30 mg (n = 33)) was 0, the “Number of subjects with Treatment-emergent SAE, Moderate” value (30 mg (n = 33)) was 0 and the “Number of subjects with Treatment-emergent SAE, Severe” value (30 mg (n = 33)) was 0. The “Number of subjects with Treatment-emergent adverse events (TEAE)” value (30 mg (n = 33)) was 11, the “Number of subjects with Treatment-emergent serious adverse events (SAE)” value (30 mg (n = 33)) was 0 and the “Number of subjects with Treatment-related TEAEs” value (30 mg (n = 33)) was 10. For the same compound, the “Number of subjects with Treatment-related and severe TEAEs” value (30 mg (n = 33)) was 0, the “Number of subjects with Treatment-related treatment-emergent SAEs” value (30 mg (n = 33)) was 0 and the “Percent of subjects with Any adverse events (AE)” value (30 mg (n = 33)) was “(33) %”. The “Percent of subjects with Serious TEAEs resulting in treatment discontinuation” value (30 mg (n = 33)) was “(0) %”, the “Percent of subjects with TEAE with outcome of death” value (30 mg (n = 33)) was “(0) %” and the “Percent of subjects with TEAEs of COVID-19” value (30 mg (n = 33)) was “(0) %”. For the same compound, the “Percent of subjects with TEAEs resulting in discontinuation from study” value (30 mg (n = 33)) was “(0) %”, the “Percent of subjects with TEAEs resulting in treatment discontinuation” value (30 mg (n = 33)) was “(0) %” and the “Percent of subjects with Treatment-emergent SAE, Mild” value (30 mg (n = 33)) was “(0) %”. The “Percent of subjects with Treatment-emergent SAE, Moderate” value (30 mg (n = 33)) was “(0) %”, the “Percent of subjects with Treatment-emergent SAE, Severe” value (30 mg (n = 33)) was “(0) %” and the “Percent of subjects with Treatment-emergent adverse events (TEAE)” value (30 mg (n = 33)) was “(33) %”. The “Percent of subjects with Treatment-emergent serious adverse events (SAE)” value (30 mg (n = 33)) was “(0) %”, the “Percent of subjects with Treatment-related TEAEs” value (30 mg (n = 33)) was “(30) %” and the “Percent of subjects with Treatment-related and severe TEAEs” value (30 mg (n = 33)) was “(0) %”. The “Percent of subjects with Treatment-related treatment-emergent SAEs” value (30 mg (n = 33)) was “(0) %”, the “Number of subjects with TEAE, Mild” value (30 mg (n = 33)) was 7 and the “Number of subjects with TEAE, Moderate” value (30 mg (n = 33)) was 4. For the same compound, the “Number of subjects with TEAE, Severe” value (30 mg (n = 33)) was 0, the “Percent of subjects with TEAE, Mild” value (30 mg (n = 33)) was “(21) %” and the “Percent of subjects with TEAE, Moderate” value (30 mg (n = 33)) was “(12) %”. The “Percent of subjects with TEAE, Severe” value (30 mg (n = 33)) was “(0) %”, the “Serious adverse events (SAEs)” value (30 mg or 60 mg single IV infusion) was “no serious adverse events” and the “Number of subjects with Any adverse events (AE)” value (60 mg (n = 35)) was 19. For the same compound, the “Number of subjects with Serious TEAEs resulting in treatment discontinuation” value (60 mg (n = 35)) was 0, the “Number of subjects with TEAE with outcome of death” value (60 mg (n = 35)) was 0 and the “Number of subjects with TEAEs of COVID-19” value (60 mg (n = 35)) was 0. The “Number of subjects with TEAEs resulting in discontinuation from study” value (60 mg (n = 35)) was 0, the “Number of subjects with TEAEs resulting in treatment discontinuation” value (60 mg (n = 35)) was 0 and the “Number of subjects with Treatment-emergent SAE, Mild” value (60 mg (n = 35)) was 0. The “Number of subjects with Treatment-emergent SAE, Moderate” value (60 mg (n = 35)) was 0, the “Number of subjects with Treatment-emergent SAE, Severe” value (60 mg (n = 35)) was 0 and the “Number of subjects with Treatment-emergent adverse events (TEAE)” value (60 mg (n = 35)) was 18. For the same compound, the “Number of subjects with Treatment-emergent serious adverse events (SAE)” value (60 mg (n = 35)) was 0, the “Number of subjects with Treatment-related TEAEs” value (60 mg (n = 35)) was 16 and the “Number of subjects with Treatment-related and severe TEAEs” value (60 mg (n = 35)) was 2. The “Number of subjects with Treatment-related treatment-emergent SAEs” value (60 mg (n = 35)) was 0, the “Percent of subjects with Any adverse events (AE)” value (60 mg (n = 35)) was “(54) %” and the “Percent of subjects with Serious TEAEs resulting in treatment discontinuation” value (60 mg (n = 35)) was “(0) %”. For the same compound, the “Percent of subjects with TEAE with outcome of death” value (60 mg (n = 35)) was “(0) %”, the “Percent of subjects with TEAEs of COVID-19” value (60 mg (n = 35)) was “(0) %” and the “Percent of subjects with TEAEs resulting in discontinuation from study” value (60 mg (n = 35)) was “(0) %”. For the same compound, the “Percent of subjects with TEAEs resulting in treatment discontinuation” value (60 mg (n = 35)) was “(0) %”, the “Percent of subjects with Treatment-emergent SAE, Mild” value (60 mg (n = 35)) was “(0) %” and the “Percent of subjects with Treatment-emergent SAE, Moderate” value (60 mg (n = 35)) was “(0) %”. For the same compound, the “Percent of subjects with Treatment-emergent SAE, Severe” value (60 mg (n = 35)) was “(0) %”, the “Percent of subjects with Treatment-emergent adverse events (TEAE)” value (60 mg (n = 35)) was “(51) %” and the “Percent of subjects with Treatment-emergent serious adverse events (SAE)” value (60 mg (n = 35)) was “(0) %”. For the same compound, the “Percent of subjects with Treatment-related TEAEs” value (60 mg (n = 35)) was “(46) %”, the “Percent of subjects with Treatment-related and severe TEAEs” value (60 mg (n = 35)) was “(6) %” and the “Percent of subjects with Treatment-related treatment-emergent SAEs” value (60 mg (n = 35)) was “(0) %”. The “Number of subjects with TEAE, Mild” value (60 mg (n = 35)) was 9, the “Number of subjects with TEAE, Moderate” value (60 mg (n = 35)) was 7 and the “Number of subjects with TEAE, Severe” value (60 mg (n = 35)) was 2. For the same compound, the “Percent of subjects with TEAE, Mild” value (60 mg (n = 35)) was “(26) %”, the “Percent of subjects with TEAE, Moderate” value (60 mg (n = 35)) was “(20) %” and the “Percent of subjects with TEAE, Severe” value (60 mg (n = 35)) was “(6) %”.
